One series deals with HBV. Put plainly: Anti-HBV activity in vitro, HepG2.2.15 cells, extracellular HBV DNA by qPCR. The following applies: HepG2.2.15 cells, HBV replication inhibited by 50%, extracellular HBV DNA by qPCR, five days after compound treatment, read-out: EC50. It is filed as cell-based. In short, it runs like this:
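HBV-producing HepG2.2.15 cells were seeded and left overnight at 37 °C, then treated with half-log serial compound dilutions at a final 0.5% DMSO. After 5 days, viral DNA was extracted from the supernatant and extracellular HBV DNA was quantified by qPCR.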
In general terms: Quantitative PCR measures a nucleic acid by following its amplification.

Series [1] in a line: Cytotoxicity in HepDE19 cells (CCK-8) and selectivity index. To be noted: human, HepDE19 cells; CCK-8 cell viability; five days after treatment. It is filed as cell-based. The source says: (§1) HepG2.2.15 and HepDE19 are stably-transfected cell lines containing the HBV genome. Both cell lines are derived from the hepatoblastoma cell line Hep G2 (American Type Culture Collection, ATCC® HB-8065™) by the published procedures described in references: MA Selles et al. Proc. Natl. Acad. Sci. USA 1987, 84, 1005-1009 and H Guo et al. Journal of Virology 2007, 81, 12472-12484, respectively. Both cell lines were maintained in Dulbecco's modified Eagle's medium (DMEM)-F12 medium supplemented with 10% fetal bovine serum, 100 U/mL penicillin, 100 μg/mL streptomycin, and 0.5 mg/mL of G418.
(§2) HepDE19 cells were seeded into 96-well plates (5×10^3 cells per well) and treated with compounds for EC50 determination. Five days after treatment, cell viability was measured by addition of 20 μL of CCK-8 reagent. Two hours after incubation at 37° C., the absorbance at wavelengths of 450 nm and 630 nm (OD450 and OD630) was recorded by a plate reader. The concentration results in the death of 50% of the host cells (CC50) of each compound were determined.
(§3) The relative effectiveness of the compound in inhibiting viral replication compared to inducing cell death was defined as the selectivity index (CC50 value/EC50 value). Based on CC50 and EC50 data, selectivity indexes were determined.

A further series has as its system HepDE19 cells. The description is as above. To be noted: for Selectivity index (CC50/EC50): CC50 (HepDE19) value / EC50 (HepG2.2.15) value; for CC50: HepDE19 cells, CCK-8 cell viability, five days after treatment. The format is cell-based.
Text: as §1, §2, §3

Series [2] in a line: Human microsomal metabolic stability. It is filed as in vitro ADME. The following applies: human microsomes 0.5 mg/mL, 1 μM test compound, NADPH, 37° C., pH 7.4, 0-30 minutes. As to the method:
Human Microsomes (BD Gentest) were preincubated with test compound for 10 minutes at 37° C. in 100 mM phosphate buffer, pH 7.4. The reactions were initiated by adding NADPH or NADPH regenerating system to give a final incubation volume of 400 μL. For NADPH system, the final incubations contained 1 μM test compound, 0.5 mg/mL liver microsomal protein, 1 mM NADPH in 100 mM phosphate buffer, pH 7.4. For the NADPH regenerating system, the final incubations contained 1 μM test compound, 0.5 mg/mL liver microsomal protein, 3 mM glucose 6-phosphate, 1 mM NADP, 3 mM MgCl2 and 0.05 mg/mL glucose 6-phosphate dehydrogenase in 100 mM phosphate buffer, pH 7.4. After incubation times of 0, 3, 6, 9, 15 and 30 minutes at 37° C., 1 sample was obtained from each time point and 50 μL of each sample was removed and transferred to 150 μL of methanol solution which was maintained at 4° C. and contained 2 μM tolbutamide as internal standard. Following precipitation and centrifugation, the amount of compound remaining in the samples were determined by LC-MS/MS. Controls of no NADPH or no NADPH regenerating system at zero and 30 minutes were also prepared and analyzed.

A further series in a line: Lysa solubility. The format is physicochemical. To be noted: 0.05 M phosphate buffer (pH 6.5). The procedure, abridged:
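Duplicate samples dried from 10 mM DMSO stocks, taken up in 0.05 M phosphate buffer pH 6.5, stirred 1 h, shaken 2 h and left overnight. Filtrate and 1/10 dilution quantified by direct UV or HPLC-UV, in μg/mL; above 80% of the calculated maximum, reported as greater than that value.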

Setting [3] is: Hepatitis B virus, HepG2.2.15, 120 h.

This note sets out measurements from patent publication US9233978B2, “6-fused heteroaryldihydropyrimidines for the treatment and prophylaxis of hepatitis B virus infection” (Hoffmann-La Roche Inc., priority 2014, dated 2016).

Read-outs that look alike come from different tables or passages of the source.

For `CCCOC(=O)C1=C(CN2CCN3C(=O)N(CC(C)(C)C(=O)O)C[C@@H]3C2)NC(c2nccs2)=N[C@H]1c1cccc(F)c1Cl` [Example 93, 3-[(8aS)-7-[[(4R)-4-(2-chloro-3-fluoro-phenyl)-5-propoxycarbonyl-2-thiazol-2-yl-1,4-dihydropyrimidin-6-yl]methyl]-3-oxo-5,6,8,8a-tetrahydro-1H-imidazo[1,5-a]pyrazin-2-yl]-2,2-dimethyl-propanoic acid], in the series on HBV (setting [3]), the EC50 came to 12 nM. Moreover, in series [1], half-maximal cytotoxicity (CC50 at 5 days) was put at 86000 nM. In addition, the “Selectivity index (CC50/EC50)” value with HepDE19 cells is on record as 7167.

For the compound `CCOC(=O)C1=C(CN2CCN3C(=O)NC[C@@H]3C2)NC(c2nccs2)=N[C@H]1c1ccc(F)cc1Br` [Example 14, Ethyl (4R)-6-[[(8aR)-3-oxo-1,2,5,6,8,8a-hexahydroimidazo[1,5-a]pyrazin-7-yl]methyl]-4-(2-bromo-4-fluoro-phenyl)-2-thiazol-2-yl-1,4-dihydropyrimidine-5-carboxylate], the EC50 with HBV (setting [3]) was determined as 2 nM. For the same compound, it took 23000 nM to reach half-maximal cytotoxicity in series [1] (CC50 at 5 days). Further, the “Selectivity index (CC50/EC50)” value in the series on HepDE19 cells stood at 13016.

Turning to `CCOC(=O)C1=C(CN2CCN3C(=O)N(CC(C)(C)C(=O)O)C[C@@H]3C2)NC(c2nc(C)cs2)=N[C@H]1c1cccc(F)c1Cl` [Example 98, 3-[(8aS)-7-[[(4R)-4-(2-chloro-3-fluoro-phenyl)-5-ethoxycarbonyl-2-(4-methylthiazol-2-yl)-1,4-dihydropyrimidin-6-yl]methyl]-3-oxo-5,6,8,8a-tetrahydro-1H-imidazo[1,5-a]pyrazin-2-yl]-2,2-dimethyl-propanoic acid], the EC50 in the series with HBV (setting [3]) stood at 11 nM. The same compound had a CC50 at 5 days in series [1] of 73000 nM. Besides, the “Selectivity index (CC50/EC50)” value with HepDE19 cells amounted to 6636.

`CCOC(=O)C1=C(CN2CCN3C(=O)N(C(C)C)C[C@@H]3C2)NC(c2nccs2)=N[C@H]1c1cccc(F)c1Cl` (single isomer, unassigned) [Example 104B]: in the series with HBV (setting [3]), the EC50 came to 4 nM. In series [1], this compound registered a CC50 at 5 days of 27000 nM. For the same compound, the “Selectivity index (CC50/EC50)” value in the series with HepDE19 cells is reported as greater than 6750.

For `CCOC(=O)C1=C(CN2CCN3C(=O)N(C4CCC(C(=O)O)C4)C[C@@H]3C2)NC(c2nccs2)=N[C@H]1c1cccc(F)c1Cl` (mixture of isomers) [Example 64, (R)-6-[(S)-2-((1R,3R)-3-Carboxy-cyclopentyl)-3-oxo-hexahydro-imidazo[1,5-a]pyrazin-7-ylmethyl]-4-(2-chloro-3-fluoro-phenyl)-2-thiazol-2-yl-1,4-dihydro-pyrimidine-5-carboxylic acid ethyl ester and (R)-6-[(S)-2-((1S,3S)-3-Carboxy-cyclopentyl)-3-oxo-hexahydro-imidazo[1,5-a]pyrazin-7-ylmethyl]-4-(2-chloro-3-fluoro-phenyl)-2-thiazol-2-yl-1,4-dihydro-pyrimidine-5-carboxylic acid ethyl ester], the EC50 with HBV was 8 nM. For the same compound, in the series on HepDE19 cells, the “Selectivity index (CC50/EC50)” value is reported as 8375 and the CC50 turned out to be 67000 nM. Moreover, the “Human Microsomal Clearance” value in series [2] is recorded as 5.6 mL/min/kg. The “Lysa” value in the series “Lysa solubility” is greater than 669 µg/mL.

With `CCOC(=O)C1=C(CN2CCN3C(=O)NCC3(C(=O)OC)C2)NC(c2nccs2)=N[C@H]1c1cccc(F)c1Cl` (stereo partly drawn) [Example 24, Methyl 7-[[(4R)-4-(2-chloro-3-fluoro-phenyl)-5-ethoxycarbonyl-2-thiazol-2-yl-1,4-dihydropyrimidin-6-yl]methyl]-3-oxo-2,5,6,8-tetrahydro-1H-imidazo[1,5-a]pyrazine-8a-carboxylate], in the series on HBV (setting [3]), the EC50 was found to be 1 nM. Half-maximal cytotoxicity in series [1] (CC50 at 5 days) was put at 53000 nM. Further, in the series with HepDE19 cells, the “Selectivity index (CC50/EC50)” value is 37857.

As for `COC(=O)C1=C(CN2CCN3C(=O)OC[C@@H]3C2)NC(c2nccs2)=N[C@H]1c1ccc(F)cc1Cl` [Example 4, Methyl (4R)-6-[[(8aS)-3-oxo-5,6,8,8a-tetrahydro-1H-oxazolo[3,4-a]pyrazin-7-yl]methyl]-4-(2-chloro-4-fluoro-phenyl)-2-thiazol-2-yl-1,4-dihydropyrimidine-5-carboxylate], the EC50 in the series on HBV (setting [3]) came to 3 nM. This compound came in with a CC50 at 5 days in series [1] of 79000 nM. For the same compound, the “Selectivity index (CC50/EC50)” value in the series with HepDE19 cells came out at 23872.

With `CCOC(=O)C1=C(CN2CCN3C(=O)N(CCO)CC3C2)NC(c2nccs2)=N[C@H]1c1cccc(F)c1Cl` (stereo partly drawn) [Example 70, Ethyl (4R)-4-(2-chloro-3-fluoro-phenyl)-6-[[2-(2-hydroxyethyl)-3-oxo-5,6,8,8a-tetrahydro-1H-imidazo[1,5-a]pyrazin-7-yl]methyl]-2-thiazol-2-yl-1,4-dihydropyrimidine-5-carboxylate], in the series with HBV (setting [3]), the EC50 was found to be 5 nM. Also, in series [1], half-maximal cytotoxicity (CC50 at 5 days) was put at 63000 nM. Besides, the “Selectivity index (CC50/EC50)” value in the series with HepDE19 cells is recorded as 12600.

For `CCOC(=O)C1=C(CN2CCN3C(=O)N(CC(C)(C)O)C[C@@H]3C2)NC(c2nccs2)=N[C@H]1c1cccc(F)c1Cl` (single isomer, unassigned) [Example 106B], in the series on HBV (setting [3]), the EC50 came out at 3 nM. The midpoint of cytotoxicity in series [1], the CC50 at 5 days, lay at 65000 nM. Also, in the series on HepDE19 cells, the “Selectivity index (CC50/EC50)” value is reported as 21666.

For the compound `COC(=O)C1=C(CN2CCN3C(=O)N(C4CCC(C(=O)O)C4)C[C@@H]3C2)NC(c2nccs2)=N[C@H]1c1ccc(F)cc1Cl` (mixture of isomers) [Example 63, (R)-6-[(S)-2-((1R,3R)-3-Carboxy-cyclopentyl)-3-oxo-hexahydro-imidazo[1,5-a]pyrazin-7-ylmethyl]-4-(2-chloro-4-fluoro-phenyl)-2-thiazol-2-yl-1,4-dihydro-pyrimidine-5-carboxylic acid methyl ester and (R)-6-[(S)-2-((1S,3S)-3-Carboxy-cyclopentyl)-3-oxo-hexahydro-imidazo[1,5-a]pyrazin-7-ylmethyl]-4-(2-chloro-4-fluoro-phenyl)-2-thiazol-2-yl-1,4-dihydro-pyrimidine-5-carboxylic acid methyl ester], the EC50 with HBV came out at 12 nM. Further, in the series with HepDE19 cells, the “Selectivity index (CC50/EC50)” value was found to be 7583 and the CC50 was 91000 nM. In addition, the “Human Microsomal Clearance” value in series [2] turned out to be 5.3 mL/min/kg. The “Lysa” value in the series “Lysa solubility” is greater than 751 µg/mL.

On to `CCOC(=O)C1=C(CN2CCN3C(=O)N(CC4CC4)C[C@@H]3[C@H]2C(=O)O)NC(c2nccs2)=N[C@H]1c1cccc(F)c1Cl` (single isomer, unassigned) [Example 97B], for which the EC50 in the series on HBV (setting [3]) came to 0.9 nM. For the same compound, in series [1], the CC50 at 5 days is greater than 100000 nM. Further, the “Selectivity index (CC50/EC50)” value in the series with HepDE19 cells is greater than 100000.

As to `COC(=O)C1=C(CN2CCN3C(=O)NCC3(C(=O)OC)C2)NC(c2nccs2)=N[C@H]1c1ccc(F)cc1Cl` (stereo partly drawn) [Example 89, Methyl 7-[[(4R)-4-(2-chloro-4-fluoro-phenyl)-5-methoxycarbonyl-2-thiazol-2-yl-1,4-dihydropyrimidin-6-yl]methyl]-3-oxo-2,5,6,8-tetrahydro-1H-imidazo[1,5-a]pyrazine-8a-carboxylate], the EC50 in the series with HBV (setting [3]) worked out at 7 nM. Moreover, half-maximal cytotoxicity in series [1] (CC50 at 5 days) was put at 75000 nM. The “Selectivity index (CC50/EC50)” value in the series with HepDE19 cells stood at 10714.

On to `CCOC(=O)C1=C(CN2CCN3C(=O)N(c4ccc(C(=O)O)cc4)C[C@@H]3C2)NC(c2nccs2)=N[C@H]1c1cccc(F)c1Cl` [Example 26, (R)-6-[(S)-2-(4-Carboxy-phenyl)-3-oxo-hexahydro-imidazo[1,5-a]pyrazin-7-ylmethyl]-4-(2-chloro-3-fluoro-phenyl)-2-thiazol-2-yl-1,4-dihydro-pyrimidine-5-carboxylic acid ethyl ester], for which the EC50 in the series with HBV (setting [3]) was found to be 2 nM. In series [1], this compound gave a CC50 at 5 days of 28000 nM. For the same compound, the “Selectivity index (CC50/EC50)” value in the series on HepDE19 cells is listed as 18620.

Usually EC50 stands for the midpoint of the concentration-response curve. One may read the CC50 as the concentration at which the toxic effect on the cells reaches its halfway point. Low values mean harm at low concentration, high ones better tolerance by the cells.
